In data set [1] the test system is replicon cells (1b-Con1). Briefly: Replicon activity assay (cell-based anti-HCV activity, replicon RNA by real-time RT-PCR). The method, then: To measure cell-based anti-HCV activity of the compounds of the present invention, replicon cells (1b-Con1) are seeded at 5000 cells/well in 96-well plates one day prior to treatment with a compound of the invention. Various concentrations of a test compound of the invention in DMSO are then added to the replicon cells, with the final concentration of
(§1) DMSO at 0.5% and fetal bovine serum at 10% in the assay media. Cells are harvested three days post-dosing, and the replicon RNA level is determined using real-time RT-PCR (Taqman assay) with GAPDH RNA as endogenous control. EC50 values are calculated from experiments with 10 serial twofold dilutions of the inhibitor in triplicate. To measure cytotoxicity in replicon cells of an inhibitor, an MTS assay is performed according to the manufacturer's protocol for CellTiter 96 Aqueous One Solution Cell Proliferation Assay (Promega, Cat # G3580) three days post dosing on cells treated identically as in replicon activity assays. […] Cytotoxicity in other types of cells may be measured using the same MTS protocol.
(§2) Data were obtained using this method for selected compounds of the present invention, and are set forth below in Table 1.
(In general: A replicon is a self-replicating genome or part of one, used to study replication in cells.)

The subject of data set [2] is replicon cells. Briefly: Cytotoxicity assay in replicon cells (MTS, CellTiter 96). The class given is cell-based. The settings on record: three days post dosing, read-out: CC50 (EDU) Range. The method, then: as §1, §2
Assay in data set [3]: as above
The settings on record: three days post dosing, read-out: CC50 (EDU) Range. Format: cell-based. The method, then:
as §1, §2

Setting [4] is: read-out: EC50 (1b) Range, replicon cells (1b-Con1), replicon RNA level three days post-dosing, GAPDH RNA as control.
The mark [5] stands for this setting: Hepatitis C virus, 72 h, read-out: EC50 (1b) Range, replicon cells (1b-Con1), replicon RNA level three days post-dosing, GAPDH RNA as control.

pEC50: −log10 of the molar value. Where two headings read alike, the source gives them in different places. Some results are limits rather than exact numbers.

A word on the pEC50: it is −log10 of the EC50, conventionally taken in molar units. A word on the CC50: it is the concentration that lowers cell viability or growth by half.

On to `CC(C)OC(=O)[C@@H](C)CCOP1(=O)OC[C@H]2O[C@@H](n3ccc(N)nc3=O)C(F)(F)[C@@H]2O1` (single isomer, unassigned) [Compound 8 Diastereomer 2], for which, in data set [1] (setting [4]), the pEC50 was 6.00 to 6.60. Besides, the 50% cytotoxic concentration (CC50) in data set [2] was not above 50 µM.
Turning to `CC(C)OC(=O)[C@H](C)CCOP1(=O)OC[C@H]2O[C@@H](n3ccc(N)nc3=O)C(F)(F)[C@@H]2O1` (single isomer, unassigned) [Compound 7 Diastereomer 2], in data set [1] (setting [4]), the pEC50 was more than 6.60. Besides, in data set [2], the cytotoxic concentration (CC50) is not above 50 µM.
For `CCOC(=O)[C@H](C)CCOP1(=O)OC[C@H]2O[C@@H](n3ccc(N)nc3=O)C(F)(F)[C@@H]2O1` (single isomer, unassigned) [Compound 10 Diastereomer 1], the pEC50 in data set [1] (setting [5]) was 6.00 to 6.60. The 50% cytotoxic concentration (CC50) at 3 days in data set [3] is not above 50 µM.
On to `CCOC(=O)[C@H](C)CCOP1(=O)OC[C@H]2O[C@@H](n3ccc(N)nc3=O)C(F)(F)[C@@H]2O1` (single isomer, unassigned) [Compound 10 Diastereomer 2], for which the pEC50 in data set [1] (setting [4]) was 6.00 to 6.60. The CC50 in data set [2] is not above 50 µM.
As for `CC(C)OC(=O)[C@@H](C)CCOP1(=O)OC[C@H]2O[C@@H](n3ccc(N)nc3=O)C(F)(F)[C@@H]2O1` (single isomer, unassigned) [Compound 8 Diastereomer 1], in data set [1] (setting [5]), the pEC50 is 6.00 to 6.60. Further, in data set [3], the CC50 at 3 days is not above 50 µM.
For the compound `CCOC(=O)[C@@H](C)CCOP1(=O)OC[C@H]2O[C@@H](n3ccc(N)nc3=O)C(F)(F)[C@@H]2O1` (single isomer, unassigned) [Compound 9 Diastereomer 2], in data set [1] (setting [4]), the pEC50 is 6.00 to 6.60. For the same compound, in data set [2], the CC50 is not above 50 µM.
Consider `CCOC(=O)[C@@H](C)CCOP1(=O)OC[C@H]2O[C@@H](n3ccc(N)nc3=O)C(F)(F)[C@@H]2O1` (single isomer, unassigned) [Compound 9 Diastereomer 1], for which the negative logarithm of the EC50 (pEC50) in data set [1] (setting [5]) is 6.00 to 6.60. Also, the CC50 at 3 days in data set [3] was not above 50 µM.
For the compound `CC(C)OC(=O)[C@H](C)CCOP1(=O)OC[C@H]2O[C@@H](n3ccc(N)nc3=O)C(F)(F)[C@@H]2O1` (single isomer, unassigned) [Compound 7 Diastereomer 1], in data set [1] (setting [5]), the pEC50 is 6.00 to 6.60. Further, in data set [3], the cytotoxic concentration (CC50) at 3 days is not above 50 µM.
